Test results: patent US20070054868A1, “Synergistic polyphenol compounds, compositions thereof, and uses thereof” (The Trustees of Columbia University in the City of New York, priority 2005, published 2007)

Legend:
IGFBP-3 = assay: Production of IGFBP-3 in HepG2 cells; type: cell-based, human; conditions: 20 μg/mL
Description: The cells were treated with […] EGCG at 0, 3, 6, 12, 24 and 48 hours, and cell extracts were examined by Western blot analysis using the respective antibodies, or were examined by semiquantitative RT-PCR analysis using IGFBP-3 or IGF-1 specific primers.
Using the MTT cell proliferation assay described in Example 21, and substituting HepG2 human liver cancer cells in place of SW837 cells, the effects of EGCG (20 μg/mL), an illustrative Synergistic Polyphenol Compound, on the production of IGF-1, IGF-2 and IGFBP-3 was determined. […] Accordingly, the Synergistic Polyphenol Compounds are useful for treating or preventing liver cancer.

[1] = system: EGFR, HER2, HER3, Akt and ERK; assay: Western blot analysis in SW837 cells, total levels of the respective proteins; type: cell-based, human; conditions: 20 μg/mL, during the time course
Source text: (§1) Total cellular protein was extracted and equivalent amounts of protein can be determined by western blot analysis using the methods described in Suzui, et al., Cancer Res., 62:3997-4006 (2002). The primary antibodies for several proteins are described in Masuda et al., Clin Cancer Res., 7:4220-4229 (2001); Masuda et al., Clin Cancer Res., 9:3486-3491 (2003); and Shimizu et al., Clin Cancer Res., 11:2735-2746 (2005). The primary antibodies for HER3 (2F12) and COX-2 (PG27) were purchased from Upstate Cell Signaling Solutions (Charlottesville, Va.) and Oxford Biochemical Research (Oxford, Mich.), respectively. To examine the levels of expression of the phosphorylated (i.e. activated) form of the HER3 protein (p-HER3), cellular lysates (1 mg/mL) were incubated with 4 μg anti-HER3 antibody overnight at 4° C. with slow agitation, and immune complexes were then precipitated by adding protein A/G agarose (sc-2003, Santa Cruz Biotechnology, Santa Cruz, Calif.). After incubating for 2 hours at 4° C., the beads were washed with lysis buffer, and bound proteins were eluted into the sample buffer and subjected to western blot analysis, as described above. The p-HER3 protein was then detected by using an anti-phospho-tyrosine antibody (PY-20-HRP, BD Transduction Laboratories, San Diego, Calif.). An antibody to actin was used as a loading control. […]

HT29 cells [2] = assay: Filipin staining of plasma membrane cholesterol; type: cell-based, human
Description: These effects were detected with as little as […] of EGCG, and within 5 minutes. Phosphorylation of EGFR, ERK1, ERK2, and AKT were suppressed in cells treated with methyl-β-cyclodextrin, which depletes plasma membrane cholesterol. […] In addition, the inhibitory effect of EGCG on phosphorylation of EGFR was not blocked by the addition of cholesterol on the growth medium. These findings provide evidence that EGCG can alter membrane domain organization in colon cancer cells ant that this is not due to cholesterol depletion. It was noted that pre-treatment of the cells with EGCG or Poly E inhibited the binding of Alexa 488-labeled EGF to the cell surface receptor EGFR.

COX-2 mRNA = assay: Semiquantitative RT-PCR analysis in SW837 cells; type: cell-based, human; conditions: 20 μg/mL
Description: RNA extraction and semiquantitative RT-PCR analysis were performed using the methods described in Suzui, et al., Cancer Res., 62:3997-4006 (2002). Total RNA was isolated from SW837 human colon cancer cells using Trizol reagent (Invitrogen) according to the manufacturer's instructions. cDNA was amplified from 1 μg of total RNA using SuperScript one-step RT-PCR with the platinum Taq system (Invitrogen). PCR was conducted for 25 cycles in a thermal controller (Programmable Thermal Controller; MJ Research Inc., Watertown, Mass.). The COX-2 specific primer sets […]-2 ([NT]) and […]-2 ([NT]) were designed using the sequence described in Hla et al., Proc. Natl. Acad. Sci. USA, 89:7384-7388 […]. Actin specific primer sets and the amplification cycle conditions were as described in Suzui, et al., Cancer Res., 62:3997-4006 (2002). The intensities of mRNA bands were quantified using NIH Image software version 1.62.

p-HER3 = assay: Immunoprecipitation and western blot analysis in SW837 cells; type: cell-based, human
Source text: as §1

HT29 cells [3] = assay: Incorporation of DilC16 into the plasma membrane after pretreatment; type: cell-based, human; conditions: HT29 pretreated with test substance
FHC = assay: Growth inhibition IC50 against normal fetal colon cell line; type: cell-based, human; conditions: conclusion from Table 4
Source text: Cell lines and cell culture. The Caco2, HCT116, HT29, SW480, and SW837 human colorectal cancer cell lines and the FHC normal human fetal colon cell line were obtained from American Type Culture Collection (Manassas, Va.). All cell lines were maintained in DF10 medium containing DMEM (Invitrogen, San Diego, Calif.) supplemented with 10% fetal bovine serum (Invitrogen). The FHC cell line was originally established from the colon of a human fetus at 13 weeks of gestation and has an epithelial morphology. Cells were cultured in an incubator with humidified air at 37° C. with 5% CO2. As an untreated solvent control, cells were treated with DMSO (Sigma Chemical Co., St. Louis, Mo.) at a final concentration of <0.1%. […] Cells to be tested against were plated onto 96-well plates (3×10^3 cells/well) and twenty-four hours later, the cells were treated with an illustrative Synergistic Polyphenol Composition, or one or more illustrative Synergistic Polyphenol Compounds. Neither the medium nor the test compounds were changed during this time period. The assay was done in triplicate. […] The medium and test compounds were not changed during this time period. As a control, the cells were treated with 0.1% DMSO. […] The numbers of cells in replica plates were then determined using a Coulter Counter (Beckman Coulter Co., Fullerton, Calif.) as described in Shimizu et al., Clin. Cancer Res. 2004: 10:1130-40.

[4] = system: HT29 human colon cancer cells; assay: DilC16-labelled plasma membrane, extraction using cold Triton X-100; type: cell-based
Description: HT29 human colon cancer cells were treated with the fluorescent lipid analog DilC16, which preferentially incorporates into ordered domains in the plasma membrane.

[5] = HT29, Triton X-100 sensitivity and DilC16 incorporation

Substance: (−)-epigallocatechin gallate
- production of IGFBP-3 (IGFBP-3): increased the production
- total levels of the respective proteins [1]: no significant changes
- effects on plasma membrane properties versus cholesterol depletion (filipin staining) (HT29 cells [2]): not associated with cholesterol depletion
- cellular level of the COX-2 mRNA (COX-2 mRNA; at 48 hours): marked decrease
- cellular level of the COX-2 mRNA (COX-2 mRNA; beginning at about 6 hours): progressive decrease
- levels of the p-HER3 protein (p-HER3; 1.0 μg/mL, 96 hours): decrease
- levels of the p-HER3 protein (p-HER3; 20 μg/mL, within 6 hours): marked decrease
- subsequent incorporation of DilC16 into the plasma membrane (HT29 cells [3]): inhibit
- growth inhibition of colorectal cancer cells relative to FHC normal cells (FHC): preferentially inhibit
- lowest concentration at which the membrane effects were detected [4, 5]: 2 mg/mL
- time within which the membrane effects were detected [4, 5]: ≤ 5 min
- sensitivity of the plasma membrane to extraction using cold Triton X-100 ([4]; HT29 pretreated with DilC16): marked increase
